Test results reported in patent US7091243B2, “Anti-irritants” (Croda, Inc., priority 2001, dated 2006).

Key:
[1] = tested on: MDCK (Kidney, Canine) strain NBL-2 cells; assay: Trans-Epithelial Permeability (TEP) Assay, intracellular leakage of sodium fluorescein; type: cell-based; conditions: for anti-irritating activity: 3% ester in shampoo base, Table 7; for anti-irritating activity, comparison between esters: referring to Table 4, 5% ester
Description: The test methodology for measuring the irritation potential of alkoxylated esters is Trans-Epithelial Permeability (TEP) Assay. The TEP Assay measures intracellular leakage of a suitable marker reagent, such as sodium fluorescein, through cells that were exposed to irritant-containing compositions. Smaller leakage indicates lower degree of cell damage. If the cells are exposed to an irritant-containing composition with and without an anti-irritant, the magnitude of reduction in the intracellular leakage measures the anti-irritating ability of the anti-irritant. For additional discussion of the TEP Assay, see Tchao, R., Trans-Epithelial Permeability of Fluorescein In Vitro As An Assay To Determine Eye Irritants, Progress in In Vitro Toxicology, A M Goldberg ed., 6:271–283 (1988); Drewitt-Barlow, B., McPherson, J., Broyd, J. and Williamson, 2000. No Tears for Baby. Global Cosmetic Industry, (October, 2000): 16–20; Burke, J. and Joseph, L. B., 2000, In Vitro Analysis of the Irritation Mitigating Properties of PEG-150 Pentaerythrityl Tetrastearate, Society of Cosmetic Chemists, 2000 Technology Showcase, NY, N.Y., all of which are incorporated by reference herein.
The ingredients were dissolved in distilled water and pH was adjusted to 6.8 to 7.2. Sodium laurel ether sulfate (triethoxylated) is a known irritant. The irritation potentials of the compositions I, II, III and IV were measured using the TEP assay as follows.
MDCK (Kidney, Canine) strain NBL-2 purchased from American Type Culture Collection (CCL 34) were cultured under standard conditions. Three days prior to experimentation the cells were subcultured onto Corning 6.5 mm Transwell porous cell culture inserts at 1×10^5 cells per insert. Cells are grown to confluence in 3 days. The inserts were washed 5 times with phosphate buffered saline (PBS) immediately before testing. All reagents were made prior to experimentation, with the exception of the final dilutions with a saline solution, which were prepared on the day of the experiment.
The compositions I, II, III, and IV were diluted to 1:50 and 1:100 with Hanks Buffered Saline Solution (HBSS). For example, to prepare a 1:50 dilution of the test composition I, 1 part of the test composition I was mixed with 49 parts of HBSS. The diluted samples were placed on the ventral side of the insert (in duplicate) in direct contact with the cells for 15 minutes. Two inserts with HBSS were used as the negative control and inserts without cells were used as references of 100% leakage. After application of the test article, the inserts were washed with large amounts of PBS.
Sodium fluorescein was added directly to the cell monolayer and 1 ml of HBSS was placed in the well below. After 30 minutes of incubation at room temperature triplicate 200 μl samples were removed from the well and the optical density (OD) of the well fluid was determined. The experimental OD was then compared to the OD of 100% leakage reference (filter without cells), and provided a measure of irritation potential of the tested compositions.
The reductions in the irritation potential were calculated as the percentage of the absolute reduction relative to the control formulation (control is taken as 100%, and the percentages of reduction are calculated as 100% minus (observed leakage)/(observed leakage of control)×100%).

[2] = tested on: Epiocular™ Tissue Model (OCL-200); assay: Epiocular Tissue Model (OCL-200) cell survival, MTT readout; type: cell-based; conditions: 5% ester added to 10% SLS in PBS
Procedure: The following example illustrates the discovery of the anti-irritation activity of certain alkoxylated esters. A test composition A and a control composition B were prepared. The test composition A contained 5% of Di-PPG-3-PEG-4 Myristyl Ether Adipate, an alkoxylated (tripropoxy-tetraethoxy) diester of tripropoxy-tetraethoxy myristyl alcohol and adipic acid, and 10% of sodium laurel sulfate (SLS), a known irritant, in Phosphate Buffered Saline (PBS) at pH 6.8–7.2. The control composition B contained 10% SLS in PBS at the same pH without the alkoxylated ester. A separate solution of PBS (without SLS and the ester) was used as a negative control solution. The testing was carried out on Epiocular™, Tissue Model (OCL-200), from MatTek Corporation. Epiocular™ inserts were equilibrated overnight in assay media. Test composition A and B, and the negative control solution were then separately placed in direct contact with the cells. For each test substance, the progress of cell death was measured at 1, 5, and 10 minutes. The negative control inserts were exposed to phosphate buffered saline (PBS) for 10 minutes. The inserts were washed with PBS, equilibrated in Eagle's Minimal Essential Medium (EMEM) prior to incubation in MTT (3-[4,5-Dimethylthiazol-2-yl]-2,5-diphenyltetrazolium bromide), and extracted in isopropyl alcohol overnight. […]

| Substance | anti-irritating activity [1] | anti-irritating activity, comparison between esters [1] | effect on cell death [2] | reduction in the irritation potential of the shampoo ([1]; 5% ester in J&J Baby Shampoo, Table 9) |
| --- | --- | --- | --- | --- |
| Di-PPG-2-PEG-10 Myristyl Adipate | show anti-irritating activity | greater anti-irritating activity than Di-PPG-2-PEG-10 Lauryl Adipate | – | – |
| Di-PPG-2-PEG-10 Steareth Ether Adipate [Di-PPG-2-PEG-10 Steareth Adipate] | – | greater anti-irritating activity than Di-PPG-2-PEG-10 Myristyl Adipate | – | – |
| Di-PPG-3-PEG-4 Cetyl Ether Adipate | show anti-irritating activity, with the magnitude of activity being substantially greater | – | – | – |
| Di-PPG-3-PEG-4 Myristyl Ether Adipate | – | – | substantially reduces cell death | dramatic reduction in the irritation potential |
